Results: patent US9382197B2, “Substituted hydroxamic acids and uses thereof” (Millennium Pharmaceuticals, Inc., priority 2010, dated 2016)
pIC50: −log10 of the molar value.

What follows are compounds tested against T1, purified human HDAC6 (Homo sapiens, UniProt Q9UBN7) (assay: HDAC6 Enzyme Assay). Conditions: bin: greater than 500 nM and less than 1 μM (lower bound in nM, upper bound in μM).
T1 construct: purchased BPS Bioscience 5006
T1 sequence (Q9UBN7 1-1215): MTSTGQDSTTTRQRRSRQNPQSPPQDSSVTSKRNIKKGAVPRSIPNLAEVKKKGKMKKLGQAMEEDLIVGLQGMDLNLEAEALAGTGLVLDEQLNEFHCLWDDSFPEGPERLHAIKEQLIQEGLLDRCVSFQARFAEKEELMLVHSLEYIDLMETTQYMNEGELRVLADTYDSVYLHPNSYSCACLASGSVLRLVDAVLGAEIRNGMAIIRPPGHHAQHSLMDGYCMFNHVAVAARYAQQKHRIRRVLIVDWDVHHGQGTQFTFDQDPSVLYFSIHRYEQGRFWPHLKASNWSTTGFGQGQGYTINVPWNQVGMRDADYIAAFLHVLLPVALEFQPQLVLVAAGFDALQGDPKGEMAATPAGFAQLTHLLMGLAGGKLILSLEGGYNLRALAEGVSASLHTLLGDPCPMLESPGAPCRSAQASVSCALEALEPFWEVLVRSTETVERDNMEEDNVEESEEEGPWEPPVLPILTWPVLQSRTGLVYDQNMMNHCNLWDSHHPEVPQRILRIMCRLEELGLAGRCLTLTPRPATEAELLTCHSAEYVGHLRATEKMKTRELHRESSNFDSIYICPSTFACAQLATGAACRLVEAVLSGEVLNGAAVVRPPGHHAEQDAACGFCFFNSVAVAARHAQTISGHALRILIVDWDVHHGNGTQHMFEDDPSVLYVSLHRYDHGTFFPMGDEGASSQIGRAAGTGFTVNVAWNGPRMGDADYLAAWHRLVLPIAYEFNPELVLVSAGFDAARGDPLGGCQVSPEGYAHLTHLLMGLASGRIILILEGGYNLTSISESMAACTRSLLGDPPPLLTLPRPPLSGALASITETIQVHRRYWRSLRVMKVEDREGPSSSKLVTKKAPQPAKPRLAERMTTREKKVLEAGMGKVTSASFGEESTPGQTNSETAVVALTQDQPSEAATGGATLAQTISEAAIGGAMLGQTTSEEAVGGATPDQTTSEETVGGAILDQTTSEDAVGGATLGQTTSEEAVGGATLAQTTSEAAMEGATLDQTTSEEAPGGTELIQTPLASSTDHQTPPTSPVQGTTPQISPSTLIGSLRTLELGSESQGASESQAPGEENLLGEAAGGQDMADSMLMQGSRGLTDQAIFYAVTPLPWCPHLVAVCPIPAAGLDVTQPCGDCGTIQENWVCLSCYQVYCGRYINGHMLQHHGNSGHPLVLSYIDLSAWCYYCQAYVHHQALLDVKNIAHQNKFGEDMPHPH
Type: biochemical
Procedure, shortened: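 Purified human HDAC6 incubated 1 h at 30 °C with Ac-Arg-Gly-Lys(Ac)-AMC and compound; trichostatin A stop, trypsin release of AMC, fluorescence Ex 340/Em 460 nm. IC50 from concentration–response relative to DMSO.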

IC50 | Structure (SMILES)
500 to 1000 nM | C[C@H](NC(=O)c1ccc(-c2ccccc2)cc1)c1cccc(C(=O)NO)c1 [Compound I-393, N-((1S)-1-{3-[(hydroxyamino)carbonyl]phenyl}ethyl)biphenyl-4-carboxamide]
500 to 1000 nM | Cn1c(C(=O)N[C@@H](c2ccc(C(=O)NO)cc2)C(F)(F)F)cc(Cl)c1Cl [Compound I-108, 4,5-dichloro-1-methyl-N-((1S)-2,2,2-trifluoro-1-{4-[(hydroxyamino)carbonyl]phenyl}ethyl)-1H-pyrrole-2-carboxamide]
500 to 1000 nM | CCc1cc(C(=O)NC(C)c2cccc(C(=O)NO)c2)n(C)n1 (stereo not shown) [Compound I-216, 3-ethyl-N-(1-{3-[(hydroxyamino)carbonyl]phenyl}ethyl)-1-methyl-1H-pyrazole-5-carboxamide]
500 to 1000 nM | C[C@@H](NC(=O)c1cccn1C)c1cccc(C(=O)NO)c1 [Compound I-271, N-((1R)-1-{3-[(hydroxyamino)carbonyl]phenyl}ethyl)-1-methyl-1H-pyrrole-2-carboxamide]

Same assay, conditions: bin: greater than 1 μM

pIC50 | Structure (SMILES)
< 6.00 | CC(NC(=O)c1cnnc2ccccc12)c1ccc(C(=O)NO)cc1 (stereo not shown) [Compound I-56, N-(1-{4-[(hydroxyamino)carbonyl]phenyl}ethyl)cinnoline-4-carboxamide]
< 6.00 | Cn1c(C(=O)NC(c2ccc(C(=O)NO)cc2)C(C)(C)C)cc2oc(-c3ccc(C(C)(C)C)cc3)cc21 (stereo not shown) [Compound I-337, 2-(4-tert-butylphenyl)-N-(1-{4-[(hydroxyamino)carbonyl]phenyl}-2,2-dimethylpropyl)-4-methyl-4H-furo[3,2-b]pyrrole-5-carboxamide]
< 6.00 | CC(C)C(NC(=O)c1ccc(-c2ccccc2)cc1)c1cccc(C(=O)NO)c1 (stereo not shown) [Compound I-323, N-(1-{3-[(hydroxyamino)carbonyl]phenyl}-2-methylpropyl)biphenyl-4-carboxamide]
< 6.00 | Cc1cc(C(=O)NO)ccc1C(C)NC(=O)C12CC3CC(CC(C3)C1)C2 (stereo not shown) [Compound I-491, N-(1-{4-[(hydroxyamino)carbonyl]-2-methylphenyl}ethyl)adamantane-1-carboxamide]
< 6.00 | CC(NC(=O)Cc1ccc2c(c1)OCO2)c1ccc(C(=O)NO)cc1 (stereo not shown) [Compound I-280, 4-{1-[(1,3-benzodioxol-5-ylacetyl)amino]ethyl}-N-hydroxybenzamide]
< 6.00 | CC(NC(=O)CC(C)(C)C)c1cccc(C(=O)NO)c1 (stereo not shown) [Compound I-333, 3-{1-[(3,3-dimethylbutanoyl)amino]ethyl}-N-hydroxybenzamide]
< 6.00 | CC(NC(=O)c1nc2ccccc2n1C)c1cccc(C(=O)NO)c1 (stereo not shown) [Compound I-100, N-(1-{3-[(hydroxyamino)carbonyl]phenyl}ethyl)-1-methyl-1H-benzimidazole-2-carboxamide]
< 6.00 | C[C@@H](NS(=O)(=O)c1ccc(C(F)(F)F)cc1)c1cccc(C(=O)NO)c1 [Compound I-403, N-hydroxy-3-[(1R)-1-({[4-(trifluoromethyl)phenyl]sulfonyl}amino)ethyl]benzamide]

Same assay, conditions: purified human HDAC6, substrate Ac-Arg-Gly-Lys(Ac)-AMC, 1 hour at 30° C.; reported as bins

pIC50 | Structure (SMILES)
6.30 to 7.00 | CC(NC(=O)NC(C)c1ccc(C(=O)NO)cc1)c1ccccc1 (stereo not shown) [Compound I-196, N-hydroxy-4-[1-({[(1-phenylethyl)amino]carbonyl}amino)ethyl]benzamide]
6.30 to 7.00 | Cc1ccccc1S(=O)(=O)NC(C)c1ccc(C(=O)NO)cc1 (stereo not shown) [Compound I-232, N-hydroxy-4-(1-{[(2-methylphenyl)sulfonyl]amino}ethyl)benzamide]
6.30 to 7.00 | Cc1cccc(CNC(=O)NC(C)c2ccc(C(=O)NO)cc2)c1 (stereo not shown) [Compound I-316, N-hydroxy-4-[1-({[(3-methylbenzyl)amino]carbonyl}amino)ethyl]benzamide]
> 7.00 | Cc1cccc(NC(=O)NC(C)c2ccc(C(=O)NO)cc2)c1 (stereo not shown) [Compound I-85, N-hydroxy-4-[1-({[(3-methylphenyl)amino]carbonyl}amino)ethyl]benzamide]
6.30 to 7.00 | CC(NS(=O)(=O)c1ccccc1)c1ccc(C(=O)NO)cc1 (stereo not shown) [Compound I-315, N-hydroxy-4-{1-[(phenylsulfonyl)amino]ethyl}benzamide]
6.30 to 7.00 | C[C@@H](NC(=O)N[C@H](C)c1ccc(C(=O)NO)cc1)c1ccccc1 [Compound I-517, N-hydroxy-4-[(1R)-1-({[(1R)-1-phenylethyl]carbamoyl}amino)ethyl]benzamide]
> 7.00 | CC(NC(=O)c1cc2ccccc2n1C)c1ccc(C(=O)NO)cc1 (stereo not shown) [Compound I-98, N-(1-{4-[(hydroxyamino)carbonyl]phenyl}ethyl)-1-methyl-1H-indole-2-carboxamide]
> 7.00 | COc1cccc(C(=O)NC(C)c2ccc(C(=O)NO)cc2)c1 (stereo not shown) [Compound I-225, N-(1-{4-[(hydroxyamino)carbonyl]phenyl}ethyl)-3-methoxybenzamide]
> 7.00 | CC(NC(=O)c1cc2ccccc2o1)c1ccc(C(=O)NO)cc1 (stereo not shown) [Compound I-207, N-(1-{4-[(hydroxyamino)carbonyl]phenyl}ethyl)-1-benzofuran-2-carboxamide]
6.30 to 7.00 | Cc1ccccc1CNC(=O)NC(C)c1ccc(C(=O)NO)cc1 (stereo not shown) [Compound I-76, N-hydroxy-4-[1-({[(2-methylbenzyl)amino]carbonyl}amino)ethyl]benzamide]

The next lines start with the compound.

Structure (SMILES) | pIC50
CC(C)[C@@H](NC(=O)Nc1ccccc1-c1ccccc1)c1ccc(C(=O)NO)cc1 [Compound I-515, 4-((1R)-1-{[(biphenyl-2-ylamino)carbonyl]amino}-2-methylpropyl)-N-hydroxybenzamide] | > 7.00
Cc1ccc(CNC(=O)NC(C)c2ccc(C(=O)NO)cc2)cc1 (stereo not shown) [Compound I-277, N-hydroxy-4-[1-({[(4-methylbenzyl)amino]carbonyl}amino)ethyl]benzamide] | 6.30 to 7.00
COc1ccc(C(=O)N[C@H](C)c2cccc(C(=O)NO)c2)cc1 [Compound I-193, N-hydroxy-3-{(1R)-1-[(4-methoxybenzoyl)amino]ethyl}benzamide] | 6.30 to 7.00
Cc1nc(-c2ccccc2)ncc1C(=O)NC(c1ccc(C(=O)NO)cc1)C(C)C (stereo not shown) [Compound I-17, N-(1-{4-[(hydroxyamino)carbonyl]phenyl}-2-methylpropyl)-4-methyl-2-phenylpyrimidine-5-carboxamide] | 6.30 to 7.00
CC(NC(=O)Nc1ccccc1-c1ccccc1)c1ccc(C(=O)NO)cc1 (stereo not shown) [Compound I-384, 4-(1-{[(biphenyl-2-ylamino)carbonyl]amino}ethyl)-N-hydroxybenzamide] | > 7.00
Cc1nc(C(=O)NC(c2ccc(C(=O)NO)cc2)C(C)(C)C)cs1 (stereo not shown) [Compound I-42, N-(1-{4-[(hydroxyamino)carbonyl]phenyl}-2,2-dimethylpropyl)-2-methyl-1,3-thiazole-4-carboxamide] | 6.30 to 7.00
O=C(NO)c1ccc([C@H](NC(=O)c2cc3ccccc3s2)C2CC2)cc1 [Compound I-229, N-((R)-cyclopropyl{4-[(hydroxyamino)carbonyl]phenyl}methyl)-1-benzothiophene-2-carboxamide] | > 7.00
CCC[C@@H](NC(=O)c1cc2ccccc2n1C)c1ccc(C(=O)NO)cc1 [Compound I-106, N-((1R)-1-{4-[(hydroxyamino)carbonyl]phenyl}butyl)-1-methyl-1H-indole-2-carboxamide] | > 7.00
O=C(NO)c1ccc([C@H](NC(=O)c2cc3ccccc3s2)c2ccccc2)cc1 [Compound I-99, N-[(R)-{4-[(hydroxyamino)carbonyl]phenyl}(phenyl)methyl]-1-benzothiophene-2-carboxamide] | > 7.00
